Tested on: Cochliobolus miyabeanus
Test: activity against brown spot of rice caused by Cochliobolus miyabeanus, protective treatment
Format: in vivo
Conditions: individual active compound, rice leaves, 6 days after inoculation
Procedure: The active compounds, separately or jointly, were prepared as a stock solution comprising 0.25% by weight of active compound in acetone or DMSO. 1% by weight of the emulsifier Uniperol® EL (wetting agent having emulsifying and dispersing action based on ethoxylated alkylphenols) was added to this solution, and the mixture was appropriately diluted with water to the desired concentration.
Use example—activity against brown spot of rice caused by Cochliobolus miyabeanus, protective treatment Leaves of potted rice seedlings of the cultivar “Tai-Nong 67” were sprayed to runoff point with an aqueous suspension having the concentration of active compound stated below. The next day, the plants were inoculated with an aqueous spore suspension of Cochliobolus miyabeanus. The test plants were then placed in climatized chambers at 22-24° C. and 95-99% relative atmospheric humidity for six days. The extent of the development of the infection on the leaves was then determined visually.
Evaluation is carried out by determining the percentage of infected leaf areas. These percentages were converted into efficacies.
The efficacy (E) is calculated as follows using Abbot's formula: E=(1−α/β)·100 α corresponds to the fungicidal infection of the treated plants in % and β corresponds to the fungicidal infection of the untreated (control) plants in % An efficacy of 0 means that the infection level of the treated plants corresponds to that of the untreated control plants; an efficacy of 100 means that the treated plants are not infected.
The expected efficacies of mixtures of active compounds are determined using Colby's formula (Colby, R. S., Weeds, 15, 20-22, 1967) and compared with the observed efficacies.
Colby's formula: E=x+y−x·y/100 • E expected efficacy, expressed in % of the untreated control, when using the mixture of the active compounds A and B at the concentrations a and b • x efficacy, expressed in % of the untreated control, when using the active compound A at the concentration a • y efficacy, expressed in % of the untreated control, when using the active compound B at the concentration b

With `CC1CCN(c2c(-c3c(F)cc(F)cc3F)c(Cl)nc3ncnn23)CC1` [I, 5-chloro-7-(4-methylpiperidin-1-yl)-6-(2,4,6-trifluorophenyl)-[1,2,4]tri-azolo[1,5-a]pyrimidine] as the molecule, how does the “Efficacy in % of the untreated control” value (6.25 ppm in the spray liquor) read?
The value was 56%.

Which “Efficacy in % of the untreated control” value (6.25 ppm in the spray liquor) does the source give for `CC(=O)O.CCCCCCCCCCCCNC(=N)N` [II (dodine), 1-dodecylguanidinium acetate] here?
Its value is 0%.

And the “Efficacy in % of the untreated control” value (25 ppm in the spray liquor)?
The value was 0%.

`CC1CCN(c2c(-c3c(F)cccc3Cl)c(Cl)nc3ncnn23)CC1` [A] was tested. Which “Efficacy in % of the untreated control” value (6.25 ppm in the spray liquor) did it give?
The value was 33%.

For `C[C@H](Nc1c(-c2c(F)cc(F)cc2F)c(Cl)nc2ncnn12)C(F)(F)F` [B], which “Efficacy in % of the untreated control” value (6.25 ppm in the spray liquor) is on record?
Its value is 56%.
